Experimental data from patent US8450331B2, “Thiophenyl-substituted 2-imino-3-methyl pyrrolo pyrimidinone compounds as BACE-1 inhibitors, compositions, and their use” (Merck Sharp & Dohme Corp., priority 2008, dated 2013).
Read-outs that look alike come from different tables or passages of the source.

Tests used:
[1] = target: T1, soluble human BACE1 catalytic domain (Homo sapiens, UniProt P56817); test: BACE1 HTRF FRET assay; format: biochemical; conditions: calculated from IC50 by Cheng-Prusoff; QSY7-APPswe-Eu substrate, pH 5.0
T1 construct: purified human BACE1 catalytic domain
T1 sequence (P56817 75-416 limits assumed): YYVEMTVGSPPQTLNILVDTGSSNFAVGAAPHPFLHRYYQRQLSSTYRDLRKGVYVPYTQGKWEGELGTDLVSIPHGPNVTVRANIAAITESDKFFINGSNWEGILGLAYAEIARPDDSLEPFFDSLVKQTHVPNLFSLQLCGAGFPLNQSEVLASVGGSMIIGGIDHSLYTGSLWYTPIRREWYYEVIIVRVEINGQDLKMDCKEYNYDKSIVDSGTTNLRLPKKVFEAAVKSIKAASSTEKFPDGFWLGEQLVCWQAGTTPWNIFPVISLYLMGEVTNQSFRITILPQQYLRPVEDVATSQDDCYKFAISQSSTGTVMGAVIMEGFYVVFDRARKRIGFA

BACE1 = target: T2, BACE1 (Homo sapiens, UniProt P56817); test: BACE inhibitor whole cell IC50 determination using HEK293-APPswe/lon cells (Aβ40); format: cell-based; conditions: 4 hours, Aβ40 in media, read-out: BACE1 A[…]40 IC50
T2 construct: endogenous in cells; host or cells: HEK293 stably transfected with human APP cDNA (Swedish and London mutations)
T2 sequence (P56817 46-501): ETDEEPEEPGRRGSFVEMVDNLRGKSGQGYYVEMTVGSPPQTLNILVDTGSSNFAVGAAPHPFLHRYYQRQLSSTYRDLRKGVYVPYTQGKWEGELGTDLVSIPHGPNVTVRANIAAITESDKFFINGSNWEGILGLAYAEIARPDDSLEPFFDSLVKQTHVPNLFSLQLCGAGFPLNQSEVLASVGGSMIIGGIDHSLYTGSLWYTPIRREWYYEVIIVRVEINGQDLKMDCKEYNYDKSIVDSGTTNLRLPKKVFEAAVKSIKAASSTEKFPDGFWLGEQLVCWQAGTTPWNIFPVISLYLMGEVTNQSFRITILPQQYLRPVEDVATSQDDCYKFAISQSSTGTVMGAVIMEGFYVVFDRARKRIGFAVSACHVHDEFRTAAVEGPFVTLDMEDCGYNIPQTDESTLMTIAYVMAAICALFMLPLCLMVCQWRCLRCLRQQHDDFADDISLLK

CYP2C9 = target: T3, CYP2C9 (Homo sapiens, UniProt P11712); test: CYP inhibition assay, human liver microsomes, CYP2C9; format: in vitro ADME
T3 construct: human liver microsomes (0.4 mg/ml); from tissue; host or cells: human liver microsomes
T3 sequence (P11712 whole entry): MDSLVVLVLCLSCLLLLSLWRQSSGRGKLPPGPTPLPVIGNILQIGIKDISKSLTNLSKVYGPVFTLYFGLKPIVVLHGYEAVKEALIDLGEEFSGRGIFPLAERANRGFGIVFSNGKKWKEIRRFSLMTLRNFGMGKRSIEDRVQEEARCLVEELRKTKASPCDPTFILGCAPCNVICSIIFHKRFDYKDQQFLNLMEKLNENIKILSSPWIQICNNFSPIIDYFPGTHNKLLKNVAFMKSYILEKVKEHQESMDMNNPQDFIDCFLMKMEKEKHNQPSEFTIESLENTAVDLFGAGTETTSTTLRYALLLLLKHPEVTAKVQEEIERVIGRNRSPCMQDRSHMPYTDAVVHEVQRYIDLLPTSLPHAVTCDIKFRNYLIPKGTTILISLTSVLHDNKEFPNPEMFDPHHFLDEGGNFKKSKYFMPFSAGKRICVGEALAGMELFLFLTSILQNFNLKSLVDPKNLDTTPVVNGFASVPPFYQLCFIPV
Procedure: (§1) The test article was dissolved in methanol at a concentration of 5 mM. Dilutions of the stock solution were also prepared in methanol. The substrate concentration was kept near the Km value for each CYP reaction. The substrates were 100 μM phenacetin (O-deethylase reaction) for CYP1A2, 16 μM dextromethorphan (O-demethylase reaction) for CYP2D6, 100 μM testosterone (6β-hydroxylase reaction) and 5 μM midazolam (1′-hydroxylase reaction) for CYP3A4, 200 μM tolbutamide (4-hydroxylase reaction) for CYP2C9, 125 μM S-(+)-mephenyloin (4-hydroxylase reaction) for CYP2C19 and 5 μM paclitaxel (6[…]-hydroxylase reaction) for CYP2C8. The reactions were terminated by the addition of 35% perchloric acid to a final concentration of 4.5% (vol:vol). The concentrations of the metabolites formed from each substrate after incubation were determined by LC-MS/MS using a standard curve.
(§2) To evaluate metabolism/mechanism-based inhibition, the test article, at the stated concentrations (0 to 50 μM), was pre-incubated with human liver microsomes for 30 min at 37° C. in the presence of NADPH and in the absence of the substrates. After the pre-incubation step, the CYP substrates were added at the previously stated concentrations and the reactions were allowed to proceed as indicated in the previous paragraph.

CYP3A4 = target: T4, CYP3A4 (Homo sapiens, UniProt P08684); test: CYP inhibition assay, human liver microsomes, CYP3A4; format: in vitro ADME
T4 construct: human liver microsomes (0.4 mg/ml); from tissue; host or cells: human liver microsomes
T4 sequence (P08684 whole entry): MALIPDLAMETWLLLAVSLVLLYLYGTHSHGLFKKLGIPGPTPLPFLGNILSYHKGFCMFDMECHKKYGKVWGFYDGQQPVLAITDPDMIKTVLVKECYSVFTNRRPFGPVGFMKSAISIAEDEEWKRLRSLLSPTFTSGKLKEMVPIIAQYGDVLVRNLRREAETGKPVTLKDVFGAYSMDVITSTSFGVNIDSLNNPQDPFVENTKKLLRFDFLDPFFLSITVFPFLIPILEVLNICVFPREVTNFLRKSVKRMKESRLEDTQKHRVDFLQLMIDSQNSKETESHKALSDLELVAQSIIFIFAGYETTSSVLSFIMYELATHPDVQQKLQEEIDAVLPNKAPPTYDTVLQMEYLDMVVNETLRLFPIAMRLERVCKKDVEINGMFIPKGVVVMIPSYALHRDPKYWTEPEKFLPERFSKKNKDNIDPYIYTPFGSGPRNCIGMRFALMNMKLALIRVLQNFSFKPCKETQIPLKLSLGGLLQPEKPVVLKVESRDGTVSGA

CYP2D6 = target: T5, CYP2D6 (Homo sapiens, UniProt P10635); test: CYP inhibition assay, human liver microsomes, CYP2D6; format: in vitro ADME
T5 construct: human liver microsomes (0.4 mg/ml); from tissue; host or cells: human liver microsomes
T5 sequence (P10635 whole entry): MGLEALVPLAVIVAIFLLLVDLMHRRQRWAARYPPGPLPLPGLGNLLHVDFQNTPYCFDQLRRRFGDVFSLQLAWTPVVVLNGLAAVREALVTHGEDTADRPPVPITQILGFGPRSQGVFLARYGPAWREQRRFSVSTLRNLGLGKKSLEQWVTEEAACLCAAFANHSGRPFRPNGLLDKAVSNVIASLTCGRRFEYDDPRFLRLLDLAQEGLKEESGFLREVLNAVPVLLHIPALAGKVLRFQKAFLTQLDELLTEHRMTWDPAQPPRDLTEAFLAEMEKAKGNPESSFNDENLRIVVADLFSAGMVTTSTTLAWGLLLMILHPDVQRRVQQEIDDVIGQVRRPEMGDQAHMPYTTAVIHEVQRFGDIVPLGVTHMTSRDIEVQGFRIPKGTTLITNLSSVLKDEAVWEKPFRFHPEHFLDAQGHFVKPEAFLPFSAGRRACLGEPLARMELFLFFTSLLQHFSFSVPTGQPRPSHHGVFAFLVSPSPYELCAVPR
Procedure: as §1, §2

human liver Cathepsin D = target: T6, human liver Cathepsin D (Homo sapiens, UniProt P07339); test: Human Cathepsin D FRET assay; format: biochemical; conditions: selectivity with respect to Cathepsin D versus BACE1
T6 construct: Purified (>95%) human liver Cathepsin D; purchased Athens Research & Technology 16-12-030104; host or cells: human liver (tissue-derived)
T6 sequence (P07339 169-412 limits assumed): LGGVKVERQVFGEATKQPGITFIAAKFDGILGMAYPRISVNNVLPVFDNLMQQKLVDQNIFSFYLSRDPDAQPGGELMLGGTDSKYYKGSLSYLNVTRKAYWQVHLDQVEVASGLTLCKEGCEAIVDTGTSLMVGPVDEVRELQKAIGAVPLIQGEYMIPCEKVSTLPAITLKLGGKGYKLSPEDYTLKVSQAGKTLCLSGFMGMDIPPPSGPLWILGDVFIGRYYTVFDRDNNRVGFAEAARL
T6 sequence (P07339 65-161 limits assumed): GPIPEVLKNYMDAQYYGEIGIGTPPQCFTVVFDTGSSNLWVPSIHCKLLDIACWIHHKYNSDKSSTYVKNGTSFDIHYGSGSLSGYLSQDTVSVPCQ

hERG = target: T7, hERG (Homo sapiens, UniProt Q12809); test: hERG rubidium efflux in hERG-CHO cells; format: cell-based; conditions: CHO cells that express hERG (hERG-CHO); for inhibition at 30 min, 1.5 uG/mL: pH 7.4, 1.5 uG/mL, read-out: HERG Rb efflux % Inhib 1.5 uG/mL; for inhibition at 30 min, 5 uG/mL: pH 7.4, 5 uG/mL, read-out: HERG Rb efflux % Inhib 5 uG/mL
T7 construct: expressed in transfected cells; host or cells: CHO cells (hERG-CHO)
T7 sequence (Q12809 whole entry): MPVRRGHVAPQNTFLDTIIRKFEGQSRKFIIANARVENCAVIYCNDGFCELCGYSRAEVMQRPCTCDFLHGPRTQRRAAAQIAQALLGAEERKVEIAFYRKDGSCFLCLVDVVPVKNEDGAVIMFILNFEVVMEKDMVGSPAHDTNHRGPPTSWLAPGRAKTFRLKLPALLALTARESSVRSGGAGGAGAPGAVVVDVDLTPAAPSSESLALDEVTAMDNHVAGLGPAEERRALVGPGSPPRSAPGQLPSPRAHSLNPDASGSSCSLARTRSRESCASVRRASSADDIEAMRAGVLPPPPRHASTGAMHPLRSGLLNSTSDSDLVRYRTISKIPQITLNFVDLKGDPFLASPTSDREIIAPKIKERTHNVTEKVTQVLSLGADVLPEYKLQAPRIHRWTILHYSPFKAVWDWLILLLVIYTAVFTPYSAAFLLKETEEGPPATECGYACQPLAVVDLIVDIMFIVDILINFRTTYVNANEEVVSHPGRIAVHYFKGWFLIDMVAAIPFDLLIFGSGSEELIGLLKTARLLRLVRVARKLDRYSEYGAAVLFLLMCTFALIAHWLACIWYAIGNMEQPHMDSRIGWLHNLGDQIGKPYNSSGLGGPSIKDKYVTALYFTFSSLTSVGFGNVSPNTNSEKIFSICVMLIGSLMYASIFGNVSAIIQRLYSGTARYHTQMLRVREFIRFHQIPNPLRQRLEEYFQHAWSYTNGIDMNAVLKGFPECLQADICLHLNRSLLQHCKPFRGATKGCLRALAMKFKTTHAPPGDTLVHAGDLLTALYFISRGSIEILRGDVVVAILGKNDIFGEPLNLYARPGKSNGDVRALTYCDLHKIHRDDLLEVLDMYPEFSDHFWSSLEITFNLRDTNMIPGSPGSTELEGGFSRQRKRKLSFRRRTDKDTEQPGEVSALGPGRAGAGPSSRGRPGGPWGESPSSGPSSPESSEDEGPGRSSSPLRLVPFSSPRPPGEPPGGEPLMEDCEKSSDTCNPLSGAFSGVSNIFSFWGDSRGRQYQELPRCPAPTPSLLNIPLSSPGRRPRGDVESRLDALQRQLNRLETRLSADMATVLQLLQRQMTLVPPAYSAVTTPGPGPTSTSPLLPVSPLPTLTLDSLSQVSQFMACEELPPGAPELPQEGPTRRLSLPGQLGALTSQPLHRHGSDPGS
Procedure: The base solution for the rubidium efflux studies was 144 mM NaCl, 20 mM HEPES-NaOH (pH 7.4), 2 mM CaCl2, 1 mM MgCl2, and 11 mM glucose. To prepare the rubidium loading buffer 5.4 mM RbCl was added. The wash buffer was supplemented with 5.4 mM KCl. The depolarization buffer was prepared by adding 40 mM KCl to the wash buffer. Drugs were added as 4× stocks containing 10% DMSO with a resulting final DMSO concentration of 2.5%.
hERG-CHO cells were plated into 96-well flat-bottom dishes and returned to the incubator for 24 hours. On the day of study, culture medium was removed and replaced by a HEPES-buffered saline solution containing 5.4 mM RbCl. Cells were returned to the tissue culture incubator for 3 hours to permit rubidium loading. […] Plates were then washed 3× with HEPES buffered saline containing 5.4 mM KCl and zero rubidium. After the 3rd wash cells were depolarized by the addition of 200 μl HEPES buffered saline containing 45.4 mM KCl. Cells were incubated in the depolarization solution for 5 minutes to permit efflux of rubidium. Supernatants were then collected and analyzed for rubidium content using automated flame atomic absorbance spectroscopy (ICR-8000, Aurora Biosciences). Percent inhibition was quantified based on a signal window defined by no block (vehicle) and full block with 10 μM dofetilide. All pipetting steps for the rubidium efflux screen were implemented using a pipetting robot capable of making simultaneous additions and removals from 96 wells (Quadra-96).

[2] = 30 min pre-incubation with NADPH, read-out: CYP 2C9 IC50 pre
[3] = co-incubation, tolbutamide substrate, read-out: CYP 2C9 IC50 co
[4] = 30 min pre-incubation with NADPH, read-out: CYP 3A4 IC50 pre
[5] = co-incubation, read-out: CYP 3A4 IC50 co
[6] = 30 min pre-incubation with NADPH, read-out: CYP 2D6 IC50 pre
[7] = co-incubation, dextromethorphan substrate, read-out: CYP 2D6 IC50 co

## Cc1nc(N2C[C@H]3C(=O)N(C)C(=N)N[C@@]3(c3cc(C#N)cs3)C2)nc(C2CC2)c1F [Example 8]
[1]
  Ki: 0.031 µM
BACE1
  IC50: 0.21 µM
CYP2C9; [2]
  IC50: > 30 µM
CYP2C9; [3]
  IC50: > 30 µM
CYP3A4; [4]
  IC50: > 30 µM
CYP3A4; [5]
  IC50: > 30 µM
CYP2D6; [6]
  IC50: > 30 µM
CYP2D6; [7]
  IC50: > 30 µM
Human liver Cathepsin D
  CathD Selectivity: 82

## CCCc1nc(N2C[C@H]3C(=O)N(C)C(=N)N[C@@]3(c3ccc(Cl)s3)C2)nc(C)c1F [Example 15]
hERG
  inhibition at 30 min, 1.5 uG/mL: 35%
  inhibition at 30 min, 5 uG/mL: 40%
[1]
  Ki: 0.0088 µM
BACE1
  IC50: 0.147 µM
Human liver Cathepsin D
  CathD Selectivity: 20

## CCc1nc(N2C[C@H]3C(=O)N(C)C(=N)N[C@@]3(c3ccc(Cl)s3)C2)nc(C)c1F [Example 7]
[1]
  Ki: 0.024 µM
BACE1
  IC50: 0.285 µM
CYP2C9; [2]
  IC50: > 30 µM
CYP2C9; [3]
  IC50: > 30 µM
CYP3A4; [4]
  IC50: > 30 µM
CYP3A4; [5]
  IC50: > 30 µM
CYP2D6; [6]
  IC50: > 30 µM
CYP2D6; [7]
  IC50: > 30 µM

## CCOc1nc(N2C[C@H]3C(=O)N(C)C(=N)N[C@@]3(c3ccc(Cl)s3)C2)nc(CC)c1F [Example 5]
hERG
  inhibition at 30 min, 1.5 uG/mL: 10%
  inhibition at 30 min, 5 uG/mL: 22%
[1]
  Ki: 0.11 µM
CYP2C9; [2]
  IC50: 4.2 µM
CYP2C9; [3]
  IC50: 7.3 µM
CYP3A4; [4]
  IC50: 23 µM
CYP3A4; [5]
  IC50: > 30 µM
CYP2D6; [6]
  IC50: 12.9 µM
CYP2D6; [7]
  IC50: 13.5 µM

## CCCc1nc(N2C[C@H]3C(=O)N(C)C(=N)N[C@@]3(c3ccc(Cl)s3)C2)nc(OC)c1F [Example 10]
hERG
  inhibition at 30 min, 1.5 uG/mL: 23%
  inhibition at 30 min, 5 uG/mL: 65%
CYP2C9; [2]
  IC50: 11.3 µM
CYP2C9; [3]
  IC50: 7.9 µM
CYP3A4; [4]
  IC50: 11.9 µM
CYP3A4; [5]
  IC50: > 30 µM
CYP2D6; [6]
  IC50: 8.2 µM
CYP2D6; [7]
  IC50: 6.1 µM

## CCc1nc(N2C[C@H]3C(=O)N(C)C(=N)N[C@@]3(c3ccc(Cl)s3)C2)nc(C2CC2)c1Cl [Example 13]
hERG
  inhibition at 30 min, 1.5 uG/mL: 2%
  inhibition at 30 min, 5 uG/mL: 46%
[1]
  Ki: 0.157 µM

## Cc1nc(N2C[C@H]3C(=O)N(C)C(=N)N[C@@]3(c3ccc(Cl)s3)C2)nc(C)c1F [Example 14]
hERG
  inhibition at 30 min, 1.5 uG/mL: 14%
  inhibition at 30 min, 5 uG/mL: 6%
[1]
  Ki: 0.047 µM
CYP2C9; [2]
  IC50: > 30 µM
CYP2C9; [3]
  IC50: > 30 µM
CYP3A4; [4]
  IC50: > 30 µM
CYP3A4; [5]
  IC50: > 30 µM
CYP2D6; [6]
  IC50: > 30 µM
CYP2D6; [7]
  IC50: > 30 µM

## CCc1nc(N2C[C@H]3C(=O)N(C)C(=N)N[C@@]3(c3ccc(Cl)s3)C2)nc(OC)c1F [Example 4]
hERG
  inhibition at 30 min, 1.5 uG/mL: 17%
  inhibition at 30 min, 5 uG/mL: 49%
CYP2C9; [2]
  IC50: 5.5 µM
CYP2C9; [3]
  IC50: 7.9 µM
CYP3A4; [4]
  IC50: ~30 µM
CYP3A4; [5]
  IC50: > 30 µM
CYP2D6; [6]
  IC50: 19 µM
CYP2D6; [7]
  IC50: 22 µM

## Cc1nc(N2C[C@H]3C(=O)N(C)C(=N)N[C@@]3(c3ccc(C#N)s3)C2)nc(C)c1F [Example 19]
hERG
  inhibition at 30 min, 1.5 uG/mL: -5%
  inhibition at 30 min, 5 uG/mL: 3%
[1]
  Ki: 0.052 µM
BACE1
  IC50: 0.141 µM
CYP2C9; [2]
  IC50: > 30 µM
CYP2C9; [3]
  IC50: > 30 µM
CYP3A4; [4]
  IC50: ~30 µM
CYP3A4; [5]
  IC50: > 30 µM
CYP2D6; [6]
  IC50: > 30 µM
CYP2D6; [7]
  IC50: > 30 µM
Human liver Cathepsin D
  CathD Selectivity: 47

## CCCc1nc(N2C[C@H]3C(=O)N(C)C(=N)N[C@@]3(c3ccc(C#N)s3)C2)nc(C)c1F [Example 16]
hERG
  inhibition at 30 min, 1.5 uG/mL: 44%
  inhibition at 30 min, 5 uG/mL: 28%
[1]
  Ki: 0.019 µM
BACE1
  IC50: 0.135 µM
Human liver Cathepsin D
  CathD Selectivity: 16

## Cc1nc(N2C[C@H]3C(=O)N(C)C(=N)N[C@@]3(c3ccc(C#N)s3)C2)nc(C2CC2)c1F [Example 9]
[1]
  Ki: 0.049 µM
BACE1
  IC50: 0.315 µM

## COc1nc(N2C[C@H]3C(=O)N(C)C(=N)N[C@@]3(c3ccc(Cl)s3)C2)nc(C2CC2)c1Cl [Example 12]
hERG
  inhibition at 30 min, 1.5 uG/mL: -7%
  inhibition at 30 min, 5 uG/mL: 34%
[1]
  Ki: 0.03 µM
BACE1
  IC50: 0.561 µM

## Cc1nc(N2C[C@H]3C(=O)N(C)C(=N)N[C@@]3(c3ccc(Cl)s3)C2)nc(C2CC2)c1F [Example 6]
[1]
  Ki: 0.049 µM
CYP2C9; [2]
  IC50: 19 µM
CYP2C9; [3]
  IC50: 19 µM
CYP3A4; [4]
  IC50: 12 µM
CYP3A4; [5]
  IC50: 16 µM
CYP2D6; [6]
  IC50: 21 µM
CYP2D6; [7]
  IC50: > 30 µM

## [H]/N=C1\N[C@@]2(c3ccc(C#N)s3)CN(c3nc(C)c(F)c(OC)n3)C[C@H]2C(=O)N1C [Example 1]
hERG
  inhibition at 30 min, 1.5 uG/mL: 1%
  inhibition at 30 min, 5 uG/mL: 10%
CYP2C9; [2]
  IC50: > 30 µM
CYP2C9; [3]
  IC50: 23.4 µM
CYP2D6; [6]
  IC50: > 30 µM
CYP2D6; [7]
  IC50: > 30 µM

## Cc1nc(N2C[C@H]3C(=O)N(C)C(=N)N[C@@]3(c3ccc(Cl)s3)C2)nc(C2CC2)c1Cl [Example 20]
hERG
  inhibition at 30 min, 1.5 uG/mL: -1%
  inhibition at 30 min, 5 uG/mL: 34%
[1]
  Ki: 0.0096 µM
BACE1
  IC50: 0.215 µM
Human liver Cathepsin D
  CathD Selectivity: 62

## COc1nc(N2C[C@H]3C(=O)N(C)C(=N)N[C@@]3(c3ccc(Cl)s3)C2)nc(C)c1F [Example 2]
hERG
  inhibition at 30 min, 1.5 uG/mL: 4%
  inhibition at 30 min, 5 uG/mL: 22%
CYP2C9; [2]
  IC50: 22.8 µM
CYP2C9; [3]
  IC50: 20.3 µM
CYP2D6; [6]
  IC50: > 30 µM
CYP2D6; [7]
  IC50: > 30 µM

## COc1nc(N2C[C@H]3C(=O)N(C)C(=N)N[C@@]3(c3ccc(Cl)s3)C2)nc(C2CC2)c1F [Example 11]
hERG
  inhibition at 30 min, 1.5 uG/mL: 26%
  inhibition at 30 min, 5 uG/mL: 72%
[1]
  Ki: 0.151 µM
BACE1
  IC50: 1.32 µM
